Test results taken from patent publication US20230133587A1, “Amino Acid Mediated Gene Delivery and Its Uses” (CHINESE INSTITUTE FOR BRAIN RESEARCH, BEIJING, priority 2020, published 2023).

What follows are compounds tested on astrocytes (assay: Other amino acids promote uptake of plasmid vectors by astrocytes). Settings: amino acid solution as vehicle.
Format: in vivo
Method: Other amino acids, including serine, alanine, histidine, γ-aminobutyric acid, proline, lysine, and threonine, are tested. […] From the analysis of the transfection efficiency of various amino acids, it was seen that, except for alanine, the efficiency of L-type amino acids is much higher than that of D-type amino acids (please see FIG. 11).
Histidine, lysine, and arginine, which are also positively charged, are significant differences in delivery efficiency, and gene delivery efficiency of threonine, serine lysine, etc. also has vast differences.

| SMILES | uptake of plasmid vectors by astrocytes |
| --- | --- |
| N[C@@H](CO)C(=O)O [serine] | can efficiently promote astrocytes to take up plasmid vectors |
| C[C@H](N)C(=O)O [alanine] | can efficiently promote astrocytes to take up plasmid vectors |
| N[C@@H](Cc1c[nH]cn1)C(=O)O [histidine] | can efficiently promote astrocytes to take up plasmid vectors |
| O=C(O)[C@@H]1CCCN1 [proline] | can efficiently promote astrocytes to take up plasmid vectors |
| N[C@@H](Cc1c[nH]cn1)C(=O)O [L-Histidine] | promote astrocyte uptake of plasmid vector(s) |
| C[C@@H](O)[C@H](N)C(=O)O [L-Threonine] | promote astrocyte uptake of plasmid vector(s) |
| C[C@@H](N)C(=O)O [D-Alanine] | promote astrocyte uptake of plasmid vector(s) |
| NCCCC[C@H](N)C(=O)O [lysine] | can efficiently promote astrocytes to take up plasmid vectors |
| C[C@@H](O)[C@H](N)C(=O)O [threonine] | can efficiently promote astrocytes to take up plasmid vectors |
| N[C@@H](CO)C(=O)O [L-Serine] | promote astrocyte uptake of plasmid vector(s) |
| NCCCC(=O)O [γ-aminobutyric acid] | can efficiently promote astrocytes to take up plasmid vectors |
